Laboratory results: US12292445B2, “Methods of selecting subjects for treatment with metabolomic modulators” (priority 2018, dated 2025)

Assays:
A. muciniphila = assay: Cross-feeding in vitro assay, A. muciniphila growth; assay type: cell-based, Akkermansia muciniphila; conditions: A. muciniphila in CD agar exposed to P. merdae pre-treated with 500 uM GGsTop vs vehicle, 24 hours
Protocol: (§1) Cross-feeding was measured as previously described. A. muciniphila was embedded at 2×10^6 cfu/ml in 5 ml pre-reduced CD or KD-based liquid media supplemented with 1% agar at the bottom of an anaerobic tube, and P. merdae was overlaid above it at 6×10^6 cfu/ml in 5 ml pre-reduced M9 minimal media. Diet-based media were generated by aseptically suspending mouse KD vs. CD diets, described above, to 2 kcal/ml in M9 media. Pilot experiments confirmed no ectopic translocation of embedded A. muciniphila from the agar compartment into the above M9 liquid compartment. For each time point, aliquots were taken from the top and bottom compartments, plated in a dilution series in rich media (RCM for P. merdae and BHI +0.05% mucins for A. muciniphila), and colonies were counted. For GGsTop pre-treatment experiments, P. merdae was incubated with 500 uM GGsTop vs vehicle in RCM media at 37° C. for 2 hours and then washed with sterile media.

SPF Swiss Webster mice = assay: 6-Hz psychomotor seizure assay; assay type: in vivo; conditions: SPF mice fed CD, oral gavage 13.3 mg/kg every 12 hours for 3 days, vs vehicle
Protocol: The 6-Hz test was conducted as previously described. […] All subsequent experimental cohorts contained male mice. One drop (˜50 ul) of 0.5% tetracaine hydrochloride ophthalmic solution was applied to the corneas of each mouse 10-15 min before stimulation. Corneal electrodes were coated with a thin layer of electrode gel (Parker Signagel). A constant-current current device (ECT Unit 57800, Ugo Basile) was used to deliver current at 3 sec duration, 0.2 ms pulse-width and 6 pulses/s frequency. CC50 (the intensity of current required to elicit seizures in 50% of the experimental group) was measured as a metric for seizure susceptibility. […] Locomotor behavior was recorded using Ethovision XT software (Noldus) and quantitative measures for falling, tail dorsiflexion (Straub tail), forelimb clonus, eye/vibrissae twitching and behavioral remission were scored manually. […] Latency to exploration (time elapsed from when an experimental mouse is released into the observation cage (after corneal stimulation) to its first lateral movement) was scored using Ethovision and manually with an electronic timer. […] Seizure threshold (CC50) was determined as previously described, using the average log interval of current steps per experimental group, where sample n is defined as the subset of animals displaying the less frequent seizure behavior. […]

[1] = test system: gamma-glutamyltranspeptidase (GGT); assay: GGT activity assay, fecal samples exposed to GGsTop; assay type: biochemical, mouse; conditions: all fecal samples (SPF CD, SPF KD, AkkPb KD, AkkPb CD), 500 uM GGsTop
Protocol: GGT activity was measured as previously described. For anaerobic cultures, bacteria were seeded at 3×10^5 cfu/ml in CD- and KD-based media. 1 ml bacterial suspension was pelleted and frozen at −80° C. for 1 hr. Separate aliquots of the same suspension were plated in BHI mucin agar media or RCM and incubated at 37° C. in a Coy anaerobic chamber for later data normalization by bacterial cfu. Pellets were then resuspended in 250 ul lysis buffer (50 mM Tris-HCl with 1 ug/ml lysozyme) and incubated on ice for 30 min. For fecal samples, one pellet was weighed and homogenized in 1 ml lysis buffer. Bacterial and fecal suspensions were then sonicated (QSonica 125) and centrifuged at 12000×g for 10 min at 4° C. 20 ul supernatant was mixed with 180 ul substrate buffer (2.9 mM L-gamma-glutamyl-3-carboxy-4-nitroanilide (Gold Bio), 100 mM of glycylglycine (Sigma Aldrich), 100 mM Tris-HCl), and 500 uM GGsTop (if noted). Absorbance at 405 nm denoting production of 3-carboxy-4-nitroaniline was measured every minute for 1 hr at 37° C. using an automated multimode plate reader (Biotek Synergy H1).

P. merdae = assay: Cross-feeding in vitro assay, P. merdae viability after GGsTop pre-treatment; assay type: cell-based, Parabacteroides merdae; conditions: 500 uM GGsTop pre-treatment, 2 hours, 37° C., pilot experiments
Protocol: as §1

[2] = test system: gamma-glutamyltranspeptidase (GGT); assay: GGT activity assay in cultured P. merdae; assay type: biochemical, Parabacteroides merdae; conditions: conventionally-cultured P. merdae, 500 uM GGsTop vs vehicle
Protocol: as §1
GGT activity was measured as previously described. For anaerobic cultures, bacteria were seeded at 3×10^5 cfu/ml in CD- and KD-based media. 1 ml bacterial suspension was pelleted and frozen at −80° C. for 1 hr. […] Absorbance at 405 nm denoting production of 3-carboxy-4-nitroaniline was measured every minute for 1 hr at 37° C. using an automated multimode plate reader (Biotek Synergy H1).

Kcnal−/− mice = assay: Kcnal seizure recordings (EEG); assay type: in vivo, mouse; conditions: CD-fed SPF Kcnal−/− mice, oral gavage 13.3 mg/kg every 12 hours
Protocol: EEGs were recorded from male and female Kcnal^−/− mice at 6-7 weeks of age. Kcnal^+/+ littermates were used as controls. There were no significant differences observed between males and females in seizure frequency and duration. Data presented include both sexes. Mice were anesthetized with isoflurane (5% induction, 2% maintenance) and eye ointment applied to each eye. Fur was removed along the head, and the area was cleaned with three alternative scrubs of chlorohexidine and 70% isopropanol. In a biosafety cabinet, mice were positioned in a stereotaxic apparatus (Harvard Biosciences) and 1 mg/kg lidocaine +1 mg/kg bupivacaine was applied locally along the incision site. […]
During EEG recordings, animals were freely moving and maintained on experimental diet. […] Simultaneous video recordings of behavioral seizures were correlated with EEG recordings and scored based on an adapted Racine scale and defined by 5 stages: 1) myoclonic jerk, 2) head stereotypy and facial clonus, 3) bilateral and alternating forelimb/hindlimb clonus, 4) rearing and falling, and 5) generalized tonic-clonic episodes. Data were analyzed by a blinded researcher using Neuroscore CNS Software (DSI). EEG signals were filtered using a 10 Hz high pass filter, and seizure events were detected by blinded manual scoring. […]

COP(=O)(CCC(N)C(=O)O)Oc1cccc(CC(=O)O)c1 (stereo not drawn) [GGsTop, 3-[[(3-amino-3-carboxypropyl)methoxyphosphinyl]oxy]benzeneacetic acid]
A. muciniphila growth (A. muciniphila): increased growth | 6-Hz seizure threshold (CC50) (SPF Swiss Webster mice): increases in seizure thresholds toward levels seen in SPF KD mice | fecal GGT activity signal [1]: eliminated the detected signals | P. merdae viability (P. merdae): no significant effect | GGT activity in P. merdae [2]: ablated | seizures per day (EEG) (Kcnal−/− mice): significant decrease in seizures per day
